This is an account of results in patent publication US20120041167A1, “POLY(GLUTAMIC ACID)-DRUG CONJUGATE WITH AN AMINO ACID AS A LINKER” (Institute of Pharmacology and Toxicology Academy of …, priority 2006, published 2012).

For data set [1], the system named is human breast cancer cells (Bacp-37). The data set is described as follows: Activities against transplanted human breast cancer tumor in mice. The class given is in vivo, Balb/c-nu/nu nude mice. As to conditions: Bacp-37 xenograft, 20 days after administration; for Inhibition rate (%): tumor weight vs control group. The protocol:
Balb/c-nu/nu nude mice (5 to 7 weeks old, 16-20 g) were randomly grouped. The mice were inoculated subcutaneously with 0.1 ml of a cell suspension containing 10^6 human breast cancer cells (Bacp-37). Upon the tumor volume having reached 50 mm^3, the mice were intravenously injected with a dose of a conjugate or a free drug. Twenty days after the administration, the animals were sacrificed and their body weight and tumor weight were measured.
On the technique in general: A xenograft is tissue or cells of one species grown in another, often human tumour cells in immunodeficient mice.

In data set [2] the test system is human liver cancer cells (HepG2). The data set is described as follows: Activities against transplanted human liver cancer tumor in mice. The data set is classed as in vivo, Balb/c-nu/nu nude mice. Particulars: HepG2 xenograft, 20 days after administration; for Inhibition rate (%): tumor weight vs control group. The protocol:
Balb/c-nu/nu nude mice (5 to 7 weeks old, 16-20 g) were randomly grouped. The mice were inoculated subcutaneously with 0.1 ml of a cell suspension containing 10^6 human liver cancer cells (HepG2). Upon the tumor volume having reached 50 mm^3, the mice were intravenously injected with a dose of a conjugate or a free drug. Twenty days after the administration, the animals were sacrificed and their body weight and tumor weight were measured. Tumor inhibition rate was calculated according to the following equation: […]

[3] abbreviates: single i.v. dose 100 mg/kg (as free drug).

“[poly-(L)-glutamic acid]-[5′-O-(glycyl)-gemcitabine] conjugate [Compound I1]”: in data set [1] (i.v. 5 mg/kg), the “Weight of tumor” value was 0.46 g and the “Inhibition rate (%)” value stood at 71.01%.
For the molecule “[N-acetyl-poly-(L)-glutamic acid]-[2′-O-(glycyl)-docetaxel] conjugate [Compound I6]”, in data set [1] (i.v. 100 mg/kg), the “Weight of tumor” value came out at 0.47 g and the “Inhibition rate (%)” value was 65.94%.
`Nc1ccn([C@@H]2O[C@H](CO)[C@@H](O)C2(F)F)c(=O)n1` [Gemcitabine]: in data set [2] (i.v. 5 mg/kg (as free drug)), the “Change of body weight (g)” value is recorded as “+4.77 g”, the “Weight of tumor” value was 0.45 g and the “Inhibition rate (%)” value turned out to be 64.28%. The “Number of animals (final/initial)” value in data set [2] (single i.v. dose 5 mg/kg (as free drug)) is reported as 4/6. For the same molecule, in data set [1] (i.v. 5 mg/kg), the “Change of body weight (g)” value is on record as “+5.08 g”, the “Weight of tumor” value is 0.51 g and the “Inhibition rate (%)” value came to 63.08%. The “Number of animals (final/initial)” value in data set [1] (single i.v. dose 5 mg/kg) was 5/6.
For “[N-acetyl-poly-(L)-glutamic acid]-[5′-O-(L-alanyl)-gemcitabine] conjugate [Compound I8]”, in data set [1] (i.v. 5 mg/kg), the “Weight of tumor” value is given as 0.39 g and the “Inhibition rate (%)” value is 71.73%.
For “[N-acetyl-poly-(L)-glutamic acid]-[2′-O-(glycyl)-paclitaxel] conjugate [Compound I4]”, in data set [1] (i.v. 100 mg/kg), the “Weight of tumor” value was 0.42 g and the “Inhibition rate (%)” value was determined as 69.56%.
For “[N-acetyl-poly-(L)-glutamic acid]-[2′-O-(L-isoleucyl)-docetaxel] conjugate [Compound I18]”, in data set [1] (i.v. 100 mg/kg), the “Weight of tumor” value is reported as 0.73 g and the “Inhibition rate (%)” value turned out to be 47.10%.
Taken in the same sequence, the figures for “[N-acetyl-poly-(L)-glutamic acid]-[2′-O-(L-valyl)-paclitaxel] conjugate [Compound I22]” were 0.41 g and 70.29%.
Turning to `CC(=O)O[C@H]1C(=O)[C@@]2(C)[C@H]([C@H](OC(=O)c3ccccc3)[C@]3(O)C[C@H](OC(=O)[C@H](O)[C@@H](NC(=O)c4ccccc4)c4ccccc4)C(C)=C1C3(C)C)[C@]1(OC(C)=O)CO[C@@H]1C[C@@H]2O` [Paclitaxel], in data set [2] (i.v. 100 mg/kg (as free drug)), the “Change of body weight (g)” value is “+5.38 g”, the “Weight of tumor” value came to 0.54 g and the “Inhibition rate (%)” value amounted to 57.14%. Also, in data set [2] (setting [3]), the “Number of animals (final/initial)” value is recorded as 5/6. In data set [1] (i.v. 100 mg/kg), the “Change of body weight (g)” value is “+5.91 g”, the “Weight of tumor” value is on record as 0.48 g and the “Inhibition rate (%)” value turned out to be 65.22%. Also, the “Number of animals (final/initial)” value in data set [1] (single i.v. dose 100 mg/kg) was 5/6.
As for “[N-acetyl-poly-(L)-glutamic acid]-[2′-O-(L-alanyl)-docetaxel] conjugate [Compound I12]”, in data set [1] (i.v. 100 mg/kg), the “Weight of tumor” value amounted to 0.34 g and the “Inhibition rate (%)” value amounted to 75.36%.
In the case of “[N-acetyl-poly-(L)-glutamic acid]-[2′-O-(L-alanyl)-paclitaxel] conjugate [Compound I10]”, in data set [1] (i.v. 100 mg/kg), the “Weight of tumor” value amounted to 0.29 g and the “Inhibition rate (%)” value worked out at 78.99%.
For the molecule `CC(=O)O[C@@]12CO[C@@H]1C[C@H](O)[C@@]1(C)C(=O)[C@H](O)C3=C(C)[C@@H](OC(=O)[C@H](O)[C@@H](NC(=O)OC(C)(C)C)c4ccccc4)C[C@@](O)([C@@H](OC(=O)c4ccccc4)[C@H]21)C3(C)C` [Docetaxel], in data set [2] (i.v. 100 mg/kg (as free drug)), the “Change of body weight (g)” value is listed as “+6.92 g”, the “Weight of tumor” value was determined as 0.56 g and the “Inhibition rate (%)” value was 55.56%. In addition, the “Number of animals (final/initial)” value in data set [2] (setting [3]) is 6/6. Also, in data set [1] (i.v. 100 mg/kg), the “Change of body weight (g)” value is “+6.29 g” and the “Weight of tumor” value was determined as 0.35 g. Besides, the “Number of animals (final/initial)” value in data set [1] (single i.v. dose 100 mg/kg) was 6/6.
